In US20100184664A1, “OPHTHALMIC COMPOSITIONS USEFUL FOR IMPROVING VISUAL ACUITY” (Allergan, Inc., priority 2008, published 2010):

Columns and labels:
phospho-JNK / total JNK = experiment: Beadlyte Cell Signaling Assay, phosphorylated:total JNK; type: cell-based, human; details: Beadlyte method, FIG. 3
Experimental: (§1) Human corneoscleral tissues, from donors aged 16-59 years were obtained from the Lions Eye Bank of Texas (Houston, Tex.). Corneal epithelial cells were grown from limbal explants. In brief, after carefully removing the central cornea, excess conjunctiva and iris and corneal endothelium, the limbal rim was cut into 12 equal pieces (about 2×2 mm size each). Two of these pieces were placed epithelial side up into each well of 6-well culture plates, and each explant was covered with a drop of fetal bovine serum (FBS) overnight. The explants were then cultured in SHEM medium, which was an 1:1 mixture of Dulbecco modified Eagle medium (DMEM) and Ham F-12 medium containing 5 ng/mL EGF, 5 μg/mL insulin, 5 μg/mL transferrin, 5 ng/mL sodium selenite, 0.5 μg/mL hydrocortisone, 30 ng/mL cholera toxin A, 0.5% DMSO, 50 μg/mL gentamicin, 1.25 μg/mL amphotericin B and 5% FBS, at 37° C. under 5% CO2 and 95% humidity. The medium was renewed every 2-3 days. Epithelial phenotype of these cultures was confirmed by characteristic morphology and immuno-fluorescent staining with cytokeratin antibodies (AE-1/AE-3).
(§2) A series of primary sub-confluent corneal epithelial cultures (grown for 12 to 14 days, about 4-5×10^5 cells/well) were washed three times with […] buffered saline (PBS) and switched to an Earle's Balanced Salt Solution (EBSS, 300 mOsmols/kg) for 24 hours before treatment. The corneal epithelial cells were cultured for 1 hour in an equal volume (2.0 mL/well) of EBSS media or 400 mOsmols/kg media by adding 53 mM NaCl or sucrose, with either L-carnitine inner salt, betaine hydrochloride, erythritol, or xylitol (all at a concentration of 2 mM) that were pre-added 60 minutes before adding NaCl or sucrose. Samples without these osmoprotectants were also prepared and tested.
(§3) The adherent cells were lysed in Beadlyte® Buffer B (included in the Beadlyte® Cell Signaling buffer kit, Upstate Biotechnology, Lake Placid, N.Y.) containing an EDTA-free protease inhibitor cocktail tablet (Roche Applied Science, Indianapolis, Ind.) for 15 minutes. The cell extracts were centrifuged at 12,000×g for 15 minutes at room temperature and the supernatants were stored at −80° C. until they were analyzed by Western blot analysis. The total protein concentrations of the cell extracts were determined using a Micro BCA protein assay kit (Pierce, Rockford, Ill.). […]
(§4) The beads were washed and mixed with biotinylated specific reporter antibodies for phospho-MAPK or total-MAPK, followed by streptavidin-phycoerythrin. The amount of total or phospho-MAPK was then quantified by the Luminex 100™ system (Luminex, Austin, Tex.). Fifty events per bead were read, and the data output obtained from the Bio-Plex Manager software were exported to Microsoft Excel® for further analysis. […]

[1] = system: corneal epithelial cells isolated from the rabbit eye; experiment: Trans-epithelial electrical resistance (TEER) of layered air-lift corneal epithelial cultures under hypertonic fluid; type: cell-based; details: for TEER (as % of isotonic control) at 22 hours: 2 mM solute in hypertonic fluid (400 mOsmols/kg), 22 hours exposure, isotonic control 100%, hypertonic control 23.3; for % TEER relative to the isotonic control, response to concentration: Example 4, different concentrations, TEER measured from 0 to 24 hours, FIG. 6; for osmoprotective benefit (TEER relative to the hypertonic control), in words: Example 1, 2 mM, 400 mOsmols/kg, 22 hours
Source text: In this experiment, corneal epithelial cells were isolated from the rabbit eye and grown under conditions so that they differentiate into a layered “air-lift” culture that includes basal, wing, and squamous cells. As they grow and differentiate, these cultures developed tight junctions between cells that provide the basis for a trans-epithelial electrical resistance (TEER) across the cell layers between the apical and basal surfaces. The TEER value is a sensitive measure of cell growth, differentiation and health.
After 5 days in culture during which the layered structure forms, different culture wells were exposed to hypertonic fluid (400 mOsmols/kg) with or without addition of one of 6 candidate compatible solutes at a low concentration (2 mM). The TEER was then measured after 22 hours of exposure. The TEER value was expressed as a percentage of the TEER value obtained from a similar culture under isotonic (300 mOsmol/kg) conditions.
Example 1 is repeated except that different concentrations of each of the candidate materials are used, and the TEER is measured at various times from 0 to 24 hours.
As in Example 1, the TEER variable is represented as % TEER relative to the isotonic control. […]

[2] = system: phosphorylated c-jun N-terminal kinases (p-JNK1 and p-JNK2); experiment: Western blot analysis of phosphorylated JNK1 and JNK2 in primary corneal epithelial cultures under hyperosmolar media; type: cell-based, human; details: 2 mM; for levels of JNK1 and JNK2 in 300 mOsmols/kg cultures: FIG. 2; for JNK activation (levels of JNK1 and JNK2, Western blot intensity) compared to 400 mOsmols/kg media alone: pre-added 60 minutes, 1 hour, FIGS. 1 and 2
Experimental: as §1, §2
The adherent cells were lysed in Beadlyte® Buffer B (included in the Beadlyte® Cell Signaling buffer kit, Upstate Biotechnology, Lake Placid, N.Y.) containing an EDTA-free protease inhibitor cocktail tablet (Roche Applied Science, Indianapolis, Ind.) for 15 minutes. The cell extracts were centrifuged at 12,000×g for 15 minutes at room temperature and the supernatants were stored at −80° C. until they were analyzed by Western blot analysis. The total protein concentrations of the cell extracts were determined using a Micro BCA protein assay kit (Pierce, Rockford, Ill.).
The intensity of each of JNK1 and JNK2 was tested for each of these compositions using Western blot analysis with specific antibodies to each phosphorylated species.
The Western blot analysis was conducted as follows. The protein samples (50 μg per lane) were mixed with 6×SDS reducing sample buffer and boiled for 5 minutes before loading. Proteins were separated by SDS polyacrylamide gel electrophoresis (4-15% Tris-HCl, gradient gels from Bio-Rad, Hercules, Calif.), and transferred electronically to polyvinylidine difluoride (PVDF) membranes (Millipore, Bedford, Mass.). The membranes were blocked with 5% non-fat milk in TTBS (50 mM Tris, pH 7.5, 0.9% NaCl, and 0.1% Tween-20) for 1 hour at room temperature (RT), and then incubated 2 hours at RT with a 1:1000 dilution of rabbit antibody against phospho-p38 MAPK (Cell Signaling, Beverly, Mass.), 1:100 dilution of rabbit antibody against phospho-JNK, or 1:500 dilution of monoclonal antibody against phospho-p44/42 ERK (Santa Cruz Biotechnology, Santa Cruz, Calif.).
After three washings with TTBS, the membranes were incubated for 1 hour at RT with horseradish peroxidase-conjugated secondary antibody goat anti-rabbit IgG (1:2000 dilution, Cell Signaling, Beverly, Mass.), or goat anti-mouse IgG (1:5000 dilution, Pierce, Rockford, Ill.). After washing the membranes four times, the signals were detected with an ECL advance chemiluminescence reagent (Amersham, Piscataway, N.J.) and the images were acquired by a Kodak image station 2000R (Eastman Kodak, New Haven, Conn.). […]

[3] = Component compatibility with stabilized chlorine dioxide preservative; type: physicochemical; details: composition including betaine and stabilized chlorine dioxide
Experimental: A composition including betaine and stabilized chlorine dioxide, as a preservative, was tested for component compatibility. […] Thus, betaine is not useful with is certain preservatives, such as stabilized chlorine dioxide. However, betaine may advantageously be employed as a compatible solute in ophthalmic compositions which use other preservative systems, or which are free of preservatives, for example, in single or unit-dose applications.

p38 MAP Kinase = experiment: Beadlyte Cell Signaling Assay, phospho:total p38 MAP Kinase; type: cell-based, human; details: Beadlyte method, FIG. 4
Experimental: Human corneoscleral tissues, from donors aged 16-59 years were obtained from the Lions Eye Bank of Texas (Houston, Tex.). Corneal epithelial cells were grown from limbal explants. In brief, after carefully removing the central cornea, excess conjunctiva and iris and corneal endothelium, the limbal rim was cut into 12 equal pieces (about 2×2 mm size each). Two of these pieces were placed epithelial side up into each well of 6-well culture plates, and each explant was covered with a drop of fetal bovine serum (FBS) overnight. […]
as §3
The beads were washed and mixed with biotinylated specific reporter antibodies for phospho-MAPK or total-MAPK, followed by streptavidin-phycoerythrin. The amount of total or phospho-MAPK was then quantified by the Luminex 100™ system (Luminex, Austin, Tex.). […]

ERK MAP Kinase = experiment: Beadlyte Cell Signaling Assay, phospho:total ERK MAP Kinase; type: cell-based, human; details: Beadlyte method, FIG. 5
Experimental: as §1, §2, §3, §4

SMILES	amount of phospho-total JNK relative to the hypertonic control (phospho-JNK / total JNK)	TEER (as % of isotonic control) at 22 hours [1] [%]	% TEER relative to the isotonic control, response to concentration [1]	levels of JNK1 and JNK2 in 300 mOsmols/kg cultures [2]	JNK activation (levels of JNK1 and JNK2, Western blot intensity) compared to 400 mOsmols/kg media alone [2]	component compatibility with stabilized chlorine dioxide (Purite7) preservative [3]	amount of phospho-total p38 relative to the hypertonic control (p38 MAP Kinase)	amount of ERK relative to the hypertonic control (ERK MAP Kinase)	osmoprotective benefit (TEER relative to the hypertonic control), in words [1]
C[N+](C)(C)CC(=O)O [Betaine, betaine (trimethyl glycine)]	reduced	53.3	dose-related response	less robust effect	definite decrease	not fully compatible	exception	did not	
C[N+](C)(C)C[C@H](O)CC(=O)[O-] [Carnitine]	reduced	118.9	dose-related response	less robust effect	definite decrease			did not	most benefit
OC[C@@H](O)[C@@H](O)CO [Erythritol]	reduced	107.4	dose-related response		no effect			reduced	best results among the polyols tested
O[C@H]1[C@H](O)[C@@H](O)[C@H](O)[C@@H](O)[C@H]1O [Myo-Inositol]		74.8							good results
NCCS(=O)(=O)O [Taurine]		39.8							
OC[C@@H](O)[C@H](O)[C@@H](O)CO [Xylitol]	reduced	94.1			no effect			reduced	good results
